# Data from patent publication US20220389026A1, “TETRACYCLIC COMPOUND USED AS CDC7 INHIBITOR” (Chia Tai Tianqing Pharmaceutical Group Co., Ltd., priority 2019, published 2022).
# Where two headings read alike, the source gives them in different places.
# Key:
# [1] = biological target: T1, CDC7/DBF4 (Homo sapiens, UniProt O00311); assay: Inhibitory effect against activity of Cdc7/DBF4 kinase (ADP-Glo kit); type: biochemical; design: purchased Promega; details: 10 μM ATP, 25° C., 60 min
# Protocol: Experimental Example 1. Detection of Inhibitory Effect of Compounds Against Activity of Cdc7/DBF4 Kinase
# Cdc7/DBF4 kinase detection kit purchased from Promega; and
# (§1) Nivo multi-marker analyzer (PerkinElmer).
# An enzyme, a substrate, adenosine triphosphate and an inhibitor were diluted with the kinase buffer in the kit.
# A test compound was serially 5-fold diluted to an 8th concentration, i.e., from 10 μM to 0.13 nM, with the DMSO concentration being 5%, and the duplicate well experiment was set up. To a microplate were added 1 μL of inhibitors of various concentration gradients, 2 μL of CDC7/DBF4 kinase (6.25 ng), 2 μL of a mixture of substrate and ATP (10 μM adenosine triphosphate, 0.2 μg/μL substrate), and the final concentration gradient of the compound was diluted from 2 μM to 0.025 nM. The reaction system was left reacting at 25° C. for 60 min. After the reaction was completed, 5 μL of ADP-Glo reagent was added to each well, and the reaction was continued at 25° C. for 40 min. After the reaction was completed, 10 μL of the kinase detection reagent was added to each well. After 30 min of reaction at 25° C., the chemiluminescence was read using a multi-marker analyzer, with an integration time of 0.5 s.
# The original data were converted to inhibition rate using the equation (Sample−Min)/(Max−Min)×100%, and the IC50 value was then curve fitted using four parameters (obtained from the “log(inhibitor) vs. response-Variableslope” model in GraphPadPrism). Table 1 provides the inhibitory activity of the compounds disclosed herein against Cdc7/DBF4 kinase.
# [2] = tested on: COLO205 cells; assay: Inhibitory activity against COLO205 cell proliferation (CellTiter-Glo); type: cell-based; details: Homo sapiens, COLO 205, 72 h; 3 days incubation
# Protocol: Experimental Example 2. Detection of Inhibitory Effect of Compounds Against Activity of Colo205 Cells
# 1640 medium; fetal bovine serum; penicillin/streptomycin antibiotics purchased from Wisent;
# CellTiter-Glo (chemiluminescence detection reagent for cell viability) reagent purchased from Promega;
# COLO205 cell line purchased from Wuhan Procell Life Science&Technology Co., Ltd; and
# as §1
# COLO205 cells were plated on to white 96-well plates by adding 80 μL of cell suspension (containing 3000 COLO205 cells) to each well. The cell plate was incubated in a CO2 incubator overnight.
# A test compound was serially 3-fold diluted to an 8th concentration, i.e., from 2 mM to 920 nM, and the duplicate well experiment was set up. […] Another cell plate was read for signal values on the day of compound addition, and these values were used as the […] in data analysis. The chemiluminescence detection reagent for cell viability was added to this cell plate at 25 μL per well and the luminescence signals were stabilized by incubation at room temperature for 10 min. Readings were taken using a multi-marker analyzer.
# The chemiluminescence detection reagent for cell viability was added to the cell plate at 25 μL per well and the luminescence signals were stabilized by incubation at room temperature for 10 min. […]
# [3] = tested on: tumors in 25 PDX models; details: cited from earlier work
# [4] = cited from earlier work
# [5] = tested on: colo205 cell line with high expression of Cdc7; details: read-out: COL0205 IC50; cited from earlier work
# [6] = biological target: T1, CDC7/DBF4; details: cited from earlier work
# T1 sequence (O00311 whole entry): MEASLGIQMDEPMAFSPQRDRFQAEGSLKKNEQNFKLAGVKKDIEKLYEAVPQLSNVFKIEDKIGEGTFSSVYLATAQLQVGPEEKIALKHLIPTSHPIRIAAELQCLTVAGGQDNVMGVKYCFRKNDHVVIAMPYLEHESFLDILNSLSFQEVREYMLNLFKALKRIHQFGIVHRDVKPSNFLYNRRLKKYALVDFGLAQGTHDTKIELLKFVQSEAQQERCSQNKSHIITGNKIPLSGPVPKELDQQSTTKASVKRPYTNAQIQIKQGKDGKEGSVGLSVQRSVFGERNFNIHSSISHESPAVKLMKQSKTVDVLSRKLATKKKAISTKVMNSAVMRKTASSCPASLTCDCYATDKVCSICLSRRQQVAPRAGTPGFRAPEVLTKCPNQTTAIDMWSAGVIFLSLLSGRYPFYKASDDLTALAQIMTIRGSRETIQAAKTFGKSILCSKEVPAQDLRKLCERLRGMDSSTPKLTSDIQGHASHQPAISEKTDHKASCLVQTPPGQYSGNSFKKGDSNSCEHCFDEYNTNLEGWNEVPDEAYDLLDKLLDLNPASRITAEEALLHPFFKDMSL
# T1 sequence (Q9UBU7 whole entry partner): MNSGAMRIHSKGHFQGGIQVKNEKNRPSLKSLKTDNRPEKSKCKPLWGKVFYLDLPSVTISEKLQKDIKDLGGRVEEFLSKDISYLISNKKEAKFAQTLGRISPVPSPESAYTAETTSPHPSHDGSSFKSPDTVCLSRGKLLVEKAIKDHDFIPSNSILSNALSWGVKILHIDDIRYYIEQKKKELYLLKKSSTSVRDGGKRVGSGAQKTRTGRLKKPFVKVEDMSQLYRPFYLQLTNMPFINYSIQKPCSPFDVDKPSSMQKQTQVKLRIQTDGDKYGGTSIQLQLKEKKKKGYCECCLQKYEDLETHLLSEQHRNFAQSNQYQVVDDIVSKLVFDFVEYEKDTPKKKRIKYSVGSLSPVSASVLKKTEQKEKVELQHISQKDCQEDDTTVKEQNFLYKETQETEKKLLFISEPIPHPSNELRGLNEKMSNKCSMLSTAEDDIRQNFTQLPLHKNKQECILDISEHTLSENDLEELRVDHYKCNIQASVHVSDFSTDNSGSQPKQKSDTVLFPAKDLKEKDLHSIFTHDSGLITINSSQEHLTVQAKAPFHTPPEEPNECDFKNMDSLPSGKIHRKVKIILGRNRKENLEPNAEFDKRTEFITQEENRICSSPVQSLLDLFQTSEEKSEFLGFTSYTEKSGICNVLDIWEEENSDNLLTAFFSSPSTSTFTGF
SMILES,IC50 [1] [nM],further results
"O=c1[nH]c(C2CC3CCN2CC3)nc2c3c(oc12)-c1c[nH]nc1CCC3 (single isomer, unassigned) [Compound 1-1]",1.49,
"O=c1[nH]c(C2CC3CCN2CC3)nc2c3c(oc12)-c1c[nH]nc1CCC3 (single isomer, unassigned) [Compound 1-2]",2.8,IC50 [2]: 51.7 nM
O=c1[nH]c([C@@H]2CCCN2)nc2c3c(oc12)-c1c[nH]nc1CCC3 [Compound 2-1],0.95,
Cc1[nH]ncc1-c1cc2nc([C@@H]3CC4CCN3CC4)[nH]c(=O)c2s1 [TAK-931],,inhibitory activity against tumors in PDX models [3]: excellent inhibitory activity; clearance rate in vivo [4]: high clearance rate; half-life in vivo [4]: short half-life; IC50 [5]: 85.5 nM; IC50 [6]: 2.59 nM

# Now from value to molecule, other results behind:
IC50 [1] [nM],SMILES,further results
1.41,O=c1[nH]c([C@H]2CCCN2)nc2c3c(oc12)-c1c[nH]nc1CCC3 [Compound 2-2],
0.6,CN1CCC[C@H]1c1nc2c3c(oc2c(=O)[nH]1)-c1c[nH]nc1CCC3 [Compound 3-1],
1.97,CN1CCC[C@@H]1c1nc2c3c(oc2c(=O)[nH]1)-c1c[nH]nc1CCC3 [Compound 3-2],
